Assay results as given in ChEMBL document CHEMBL1127144, “Cyclopentenones as potential inhibitors of penicillin sensitive enzymes” (Bioorg Med Chem Lett, 1993).
Activity calls are given as the source filed them.

Columns and labels:
Escherichia coli = assay: Compound was evaluated for antibacterial activity against Escherichia coli ESS; Inactive; assay type: functional, organism-based
[1] = biological target: Beta-lactamase (Streptomyces albus G) (UniProt P14559); assay: Compound was evaluated for the inhibitory activity against beta-lactamase of Streptomyces albus G; Inactive
Bacillus subtilis = assay: Compound was evaluated for antibacterial activity against Bacillus subtilis ATCC 6633; Inactive; assay type: functional, organism-based
Staphylococcus aureus = assay: Compound was evaluated for antibacterial activity against Staphylococcus aureus Oxford; Inactive; assay type: functional, organism-based
[2] = biological target: T1, Beta-lactamase 1 (Bacillus cereus) (UniProt P00809); assay: Compound was evaluated for the inhibitory activity against beta-lactamase of Bacillus cereus; Inactive
T1 sequence (whole entry): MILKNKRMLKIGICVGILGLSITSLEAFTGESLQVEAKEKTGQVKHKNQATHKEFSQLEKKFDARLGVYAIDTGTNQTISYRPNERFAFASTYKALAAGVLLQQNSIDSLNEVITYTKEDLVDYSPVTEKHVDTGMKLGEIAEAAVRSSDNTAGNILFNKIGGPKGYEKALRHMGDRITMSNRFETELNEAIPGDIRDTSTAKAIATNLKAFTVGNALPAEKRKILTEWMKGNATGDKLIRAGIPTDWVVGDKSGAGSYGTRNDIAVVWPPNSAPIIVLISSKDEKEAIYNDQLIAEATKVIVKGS

Haemophilus influenzae = assay: Compound was evaluated for antibacterial activity against Haemophilus influenzae Q1; Inactive; assay type: functional, organism-based
Enterococcus faecalis = assay: Compound was evaluated for antibacterial activity against […] I; Inactive; assay type: functional, organism-based
Streptococcus agalactiae = assay: Compound was evaluated for antibacterial activity against Streptococcus agalactiae Hester; Inactive; assay type: functional, organism-based
Streptomyces = assay: Compound was evaluated for the inhibitory activity against D, D-carboxypeptidase of Streptomyces R39; Inactive
[3] = biological target: Beta-lactamase (Enterobacter cloacae) (UniProt P05364); assay: Compound was evaluated for the inhibitory activity against beta-lactamase of Enterobacter cloacae P99; Inactive
Streptococcus pyogenes = assay: Compound was evaluated for antibacterial activity against Streptococcus pyogenes CN10; Inactive; assay type: functional, organism-based
[4] = test system: mycobacterium catarrhalis; assay: Compound was evaluated for antibacterial activity against Mycobacterium catarrhalis 1502; Inactive; assay type: functional
Streptococcus pneumoniae = assay: Compound was evaluated for antibacterial activity against Streptococcus pneumoniae 1761; Inactive; assay type: functional, organism-based
Pseudomonas aeruginosa = assay: Compound was evaluated for antibacterial activity against Pseudomonas aeruginosa 447B-ES48; Inactive; assay type: functional, organism-based
[5] = biological target: Beta-lactamase TEM (Escherichia coli) (UniProt P62593); assay: Compound was evaluated for the inhibitory activity against beta-lactamase of Escherichia coli (TEM-1); Inactive

Measured: Activity

Chain of Beta-lactamase TEM (Escherichia coli) (P62593 whole entry): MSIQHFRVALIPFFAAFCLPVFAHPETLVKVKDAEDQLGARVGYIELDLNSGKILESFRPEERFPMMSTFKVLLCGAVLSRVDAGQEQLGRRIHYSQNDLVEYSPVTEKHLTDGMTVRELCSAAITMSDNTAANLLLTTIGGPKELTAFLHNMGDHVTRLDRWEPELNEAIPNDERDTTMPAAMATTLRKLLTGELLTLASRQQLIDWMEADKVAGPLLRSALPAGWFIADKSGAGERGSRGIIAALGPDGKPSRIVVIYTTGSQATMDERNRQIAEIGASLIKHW
Chain of Beta-lactamase (Streptomyces albus G) (P14559 whole entry, looked up): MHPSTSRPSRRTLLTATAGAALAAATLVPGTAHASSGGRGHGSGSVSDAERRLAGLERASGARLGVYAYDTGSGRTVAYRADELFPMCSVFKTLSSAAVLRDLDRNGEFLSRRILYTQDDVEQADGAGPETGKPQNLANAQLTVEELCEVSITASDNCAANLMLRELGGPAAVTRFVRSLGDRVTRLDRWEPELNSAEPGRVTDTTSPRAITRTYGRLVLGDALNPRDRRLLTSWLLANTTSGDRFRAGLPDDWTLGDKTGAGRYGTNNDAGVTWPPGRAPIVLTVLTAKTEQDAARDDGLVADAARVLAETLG
Chain of Beta-lactamase (Enterobacter cloacae) (P05364 21-381 limits assumed): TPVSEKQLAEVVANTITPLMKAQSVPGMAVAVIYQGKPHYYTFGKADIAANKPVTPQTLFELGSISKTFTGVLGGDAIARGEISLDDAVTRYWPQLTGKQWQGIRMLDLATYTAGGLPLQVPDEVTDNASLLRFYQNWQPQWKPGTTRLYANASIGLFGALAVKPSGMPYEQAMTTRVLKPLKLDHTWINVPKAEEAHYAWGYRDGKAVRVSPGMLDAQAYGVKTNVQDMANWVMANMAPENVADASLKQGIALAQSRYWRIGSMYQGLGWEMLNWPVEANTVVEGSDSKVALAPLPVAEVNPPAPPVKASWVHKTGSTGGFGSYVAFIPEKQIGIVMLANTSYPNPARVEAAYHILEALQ

NC1C=C(CC(=O)O)C(=O)C1 (stereo not given)
inactive: all assays above

O=C(O)CC1=CC(NC(=O)Cc2ccccc2)CC1=O (stereo not given)
inactive: all assays above

CO/N=C(/C(=O)NC1C=C(CC(=O)O)C(=O)C1)c1csc(N)n1 (stereo not given)
inactive: all assays above
